A value given as a limit tells only on which side of the number the result lay.

In one experiment the target is Coagulation factor X (Bos taurus, UniProt P00743). In words: Inhibitory activity against coagulation factor X.
In a further experiment the target is T1, Serine protease 1 (Bos taurus, UniProt P00760).
T1 sequence (P00760 whole entry): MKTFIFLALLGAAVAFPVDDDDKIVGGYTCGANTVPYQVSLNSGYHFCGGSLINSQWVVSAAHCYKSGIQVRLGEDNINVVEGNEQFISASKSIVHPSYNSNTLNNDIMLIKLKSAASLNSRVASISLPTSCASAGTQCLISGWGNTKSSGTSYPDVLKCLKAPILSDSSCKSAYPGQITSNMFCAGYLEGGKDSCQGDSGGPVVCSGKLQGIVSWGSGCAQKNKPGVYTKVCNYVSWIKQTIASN
In words: Inhibitory activity against trypsin.

Experiment [1] deals with T2, Plasminogen (Homo sapiens, UniProt P00747). Briefly: Inhibitory activity against plasmin.
T2 sequence (P00747 97-580 limits assumed): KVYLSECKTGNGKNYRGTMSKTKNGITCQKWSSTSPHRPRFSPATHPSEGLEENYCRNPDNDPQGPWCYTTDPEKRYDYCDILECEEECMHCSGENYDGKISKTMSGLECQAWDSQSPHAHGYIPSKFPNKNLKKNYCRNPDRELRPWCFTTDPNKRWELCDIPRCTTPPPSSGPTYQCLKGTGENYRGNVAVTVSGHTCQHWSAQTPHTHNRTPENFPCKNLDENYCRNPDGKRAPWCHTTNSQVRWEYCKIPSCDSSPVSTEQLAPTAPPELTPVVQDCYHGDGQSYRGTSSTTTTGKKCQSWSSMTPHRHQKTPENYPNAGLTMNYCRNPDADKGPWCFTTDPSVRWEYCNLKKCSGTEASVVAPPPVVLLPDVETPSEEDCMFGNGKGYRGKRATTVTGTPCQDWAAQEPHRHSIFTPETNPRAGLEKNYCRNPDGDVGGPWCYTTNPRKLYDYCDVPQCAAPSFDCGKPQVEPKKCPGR
T2 sequence (P00747 581-810 limits assumed): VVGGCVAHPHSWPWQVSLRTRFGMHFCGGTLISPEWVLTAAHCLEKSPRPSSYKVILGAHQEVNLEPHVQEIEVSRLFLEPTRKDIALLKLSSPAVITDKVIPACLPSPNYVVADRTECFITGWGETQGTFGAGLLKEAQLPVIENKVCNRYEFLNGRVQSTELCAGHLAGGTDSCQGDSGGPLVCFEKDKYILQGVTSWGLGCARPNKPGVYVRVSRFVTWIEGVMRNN
For another experiment, the target named is Prothrombin (Bos taurus, UniProt P00735).
The nature of experiment [2]: Concentration for doubling of thrombin time. It is filed as functional, Homo sapiens.
Experiment [3] can be described thus: Concentration for doubling of partial thromboplastin time. It is filed as functional, Homo sapiens.
Experiment [4] is described as follows: Concentration for doubling of prothrombin time. Format: functional, Homo sapiens.
Experiment [5] addresses T2, Plasminogen. In words: Inhibitory activity against Plasmin.
The target in another experiment is T3, Coagulation factor XII (Homo sapiens, UniProt P00748).
T3 sequence (P00748 whole entry): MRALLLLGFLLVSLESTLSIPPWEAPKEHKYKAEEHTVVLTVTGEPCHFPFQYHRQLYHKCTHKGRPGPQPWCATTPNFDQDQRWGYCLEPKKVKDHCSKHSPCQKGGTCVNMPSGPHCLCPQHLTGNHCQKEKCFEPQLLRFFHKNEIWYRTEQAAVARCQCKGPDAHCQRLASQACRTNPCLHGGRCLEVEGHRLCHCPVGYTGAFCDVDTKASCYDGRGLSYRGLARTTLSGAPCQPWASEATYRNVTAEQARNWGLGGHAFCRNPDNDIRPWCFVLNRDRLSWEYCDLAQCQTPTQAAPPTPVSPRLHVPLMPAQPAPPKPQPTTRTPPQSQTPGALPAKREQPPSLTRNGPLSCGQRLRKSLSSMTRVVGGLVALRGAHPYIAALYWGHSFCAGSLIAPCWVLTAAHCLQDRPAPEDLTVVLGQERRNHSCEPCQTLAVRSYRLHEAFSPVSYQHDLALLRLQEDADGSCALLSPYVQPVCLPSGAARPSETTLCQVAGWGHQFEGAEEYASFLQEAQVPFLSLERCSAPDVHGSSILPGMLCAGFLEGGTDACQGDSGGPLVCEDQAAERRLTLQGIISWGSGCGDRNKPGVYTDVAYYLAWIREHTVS
In words: Inhibitory activity against Coagulation factor XII.

A further experiment addresses Plasma kallikrein (Homo sapiens, UniProt P03952). In words: Inhibitory activity against Kallikrein (PK).
In experiment [6] the target is Vitamin K-dependent protein C (Homo sapiens, UniProt P04070). In words: Inhibitory activity against Activated protein C.
Sequence of Vitamin K-dependent protein C (P04070 43-197 limits assumed): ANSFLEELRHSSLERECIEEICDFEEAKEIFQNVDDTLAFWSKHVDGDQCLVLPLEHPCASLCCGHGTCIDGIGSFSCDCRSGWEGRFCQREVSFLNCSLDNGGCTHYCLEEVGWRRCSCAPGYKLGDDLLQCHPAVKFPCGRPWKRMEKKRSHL
Sequence of Vitamin K-dependent protein C (P04070 212-461 limits assumed): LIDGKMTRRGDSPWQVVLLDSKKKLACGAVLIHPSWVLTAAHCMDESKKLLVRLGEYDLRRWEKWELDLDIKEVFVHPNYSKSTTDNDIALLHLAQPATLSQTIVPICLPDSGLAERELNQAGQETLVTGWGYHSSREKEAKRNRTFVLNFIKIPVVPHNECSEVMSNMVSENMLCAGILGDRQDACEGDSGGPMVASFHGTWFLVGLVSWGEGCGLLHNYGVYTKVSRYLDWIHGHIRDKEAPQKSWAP
Experiment [7] addresses Urokinase-type plasminogen activator (Homo sapiens, UniProt P00749). Briefly: Inhibitory activity against UK.
Experiment [8] has as its target Tissue-type plasminogen activator (Homo sapiens, UniProt P00750). In words: Inhibitory activity against single-chain tissue-type plasminogen activator (sc-tissue plasminogen activator).

Sequence of Coagulation factor X (P00743 41-180 limits assumed): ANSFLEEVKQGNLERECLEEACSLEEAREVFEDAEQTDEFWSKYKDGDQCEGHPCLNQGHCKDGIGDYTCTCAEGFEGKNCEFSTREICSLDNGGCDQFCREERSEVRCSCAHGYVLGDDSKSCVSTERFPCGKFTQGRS
Sequence of Coagulation factor X (P00743 234-492 limits assumed): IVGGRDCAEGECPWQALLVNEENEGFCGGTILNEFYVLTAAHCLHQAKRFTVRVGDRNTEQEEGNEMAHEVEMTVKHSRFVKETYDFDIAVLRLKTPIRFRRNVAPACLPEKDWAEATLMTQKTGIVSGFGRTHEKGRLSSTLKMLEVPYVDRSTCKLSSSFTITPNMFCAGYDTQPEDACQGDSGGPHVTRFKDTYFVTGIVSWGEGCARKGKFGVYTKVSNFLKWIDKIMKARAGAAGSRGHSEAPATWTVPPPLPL
Sequence of Plasma kallikrein (P03952 20-390 limits assumed): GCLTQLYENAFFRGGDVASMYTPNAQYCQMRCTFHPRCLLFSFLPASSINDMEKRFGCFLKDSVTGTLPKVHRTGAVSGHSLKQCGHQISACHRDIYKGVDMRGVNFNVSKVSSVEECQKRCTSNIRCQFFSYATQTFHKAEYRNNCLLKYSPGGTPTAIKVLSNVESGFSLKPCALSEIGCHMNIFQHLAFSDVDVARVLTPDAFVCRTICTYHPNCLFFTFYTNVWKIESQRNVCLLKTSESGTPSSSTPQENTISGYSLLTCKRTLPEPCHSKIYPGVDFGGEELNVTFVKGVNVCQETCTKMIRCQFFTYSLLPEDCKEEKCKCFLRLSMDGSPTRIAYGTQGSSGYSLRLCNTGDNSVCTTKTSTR
Sequence of Plasma kallikrein (P03952 391-638 limits assumed): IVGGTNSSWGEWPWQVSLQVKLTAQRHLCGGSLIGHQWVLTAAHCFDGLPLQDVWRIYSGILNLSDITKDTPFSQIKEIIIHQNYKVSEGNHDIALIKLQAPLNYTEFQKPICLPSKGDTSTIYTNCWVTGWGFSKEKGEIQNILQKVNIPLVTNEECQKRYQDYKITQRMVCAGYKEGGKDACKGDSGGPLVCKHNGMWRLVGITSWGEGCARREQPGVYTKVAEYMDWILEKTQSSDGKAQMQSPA
Sequence of Tissue-type plasminogen activator (P00750 whole entry): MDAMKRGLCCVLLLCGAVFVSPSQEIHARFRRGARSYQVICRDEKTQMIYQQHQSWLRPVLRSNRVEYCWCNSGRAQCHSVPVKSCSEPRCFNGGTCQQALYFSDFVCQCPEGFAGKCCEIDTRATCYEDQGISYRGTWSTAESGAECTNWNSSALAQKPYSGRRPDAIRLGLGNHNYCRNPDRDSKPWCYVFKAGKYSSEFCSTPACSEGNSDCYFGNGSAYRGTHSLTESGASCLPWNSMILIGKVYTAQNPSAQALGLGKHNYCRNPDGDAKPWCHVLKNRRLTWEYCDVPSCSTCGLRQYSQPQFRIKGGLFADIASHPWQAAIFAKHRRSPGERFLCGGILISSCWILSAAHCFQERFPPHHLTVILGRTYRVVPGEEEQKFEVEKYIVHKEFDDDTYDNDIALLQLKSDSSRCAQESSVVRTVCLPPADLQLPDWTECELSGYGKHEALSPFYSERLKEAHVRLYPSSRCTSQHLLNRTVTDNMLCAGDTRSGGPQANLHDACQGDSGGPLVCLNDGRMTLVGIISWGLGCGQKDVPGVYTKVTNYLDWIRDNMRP
Description for Prothrombin: Inhibitory activity against thrombin

Take `N=C(N)c1cccc(CC(NS(=O)(=O)c2ccc3ccccc3c2)C(=O)N2CCN(C(=O)c3ccc4ccccc4c3)CC2)c1` (stereo not given): the inhibition constant Ki (as a rule, a measure of affinity in units of concentration, obtained from inhibition or displacement) at Coagulation factor X turned out to be 7.3 µM; at Serine protease 1, 0.19 µM; on Plasminogen [1] it was 3 µM; on Prothrombin it was 0.46 µM.

`CCCC(=O)N1CCN(C(=O)C(Cc2cccc(C(=N)N)c2)NS(=O)(=O)c2ccc3ccccc3c2)CC1` (stereo not given): the Ki on Coagulation factor X was determined as 80 µM; on Serine protease 1 it was 0.049 µM; at Plasminogen [1] it was 8.6 µM; at Prothrombin, 1.04 µM.

With `COc1cc(C)c(S(=O)(=O)NC(Cc2cccc(C(=N)N)c2)C(=O)N2CCN(S(C)(=O)=O)CC2)c(C)c1C` (stereo not given), the Ki at Serine protease 1 was determined as 1.8 µM.

Regarding `N=C(N)c1cccc(CC(NS(=O)(=O)c2ccc3ccccc3c2)C(=O)N2CCN(S(=O)(=O)c3ccc4ccccc4c3)CC2)c1` (stereo not given), the Ki on Serine protease 1 amounted to 0.4 µM.

On to `CCCS(=O)(=O)N1CCN(C(=O)C(Cc2cccc(C(=N)N)c2)NS(=O)(=O)c2ccc3ccccc3c2)CC1` (stereo not given), for which the Ki at Coagulation factor X came to 22 µM; at Serine protease 1, 0.21 µM; at Plasminogen [1], 7.8 µM; at Prothrombin, 0.28 µM.

On to `N=C(N)c1cccc(C[C@H](NS(=O)(=O)c2ccc3ccccc3c2)C(=O)N2CCN(CCO)CC2)c1`, for which the Ki on Serine protease 1 came out at 39 µM; on Prothrombin, 5.6 µM.

Molecule `CS(=O)(=O)N1CCN(C(=O)[C@H](Cc2cccc(C(=N)N)c2)NS(=O)(=O)c2ccc3ccccc3c2)CC1` had a Ki on Serine protease 1 of 13 µM.

For `CS(=O)(=O)N1CCN(C(=O)C(N)Cc2cccc(C(=N)N)c2)CC1` (stereo not given), the Ki on Coagulation factor X and on Plasminogen [1] was over 1000 µM throughout.

At Plasminogen [1], `CC(C)(C)c1ccc(S(=O)(=O)NC(Cc2cccc(C(=N)N)c2)C(=O)N2CCN(S(C)(=O)=O)CC2)cc1` (stereo not given) displayed a Ki of 14 µM.

The molecule `CN(C)C(=O)N1CCN(C(=O)C(Cc2cccc(C(=N)N)c2)NS(=O)(=O)c2ccc3ccccc3c2)CC1` (stereo not given) returned a Ki at Serine protease 1 of 0.17 µM.

Take `N=C(N)c1cccc(C[C@H](NS(=O)(=O)c2ccc3ccccc3c2)C(=O)N2CCN(C=O)CC2)c1`: the results for the Ki at Serine protease 1 and at Prothrombin were 11.1 µM and 1.6 µM, respectively.

For the molecule `CN(C)C(=O)N1CCN(C(=O)[C@H](Cc2cccc(C(=N)N)c2)NS(=O)(=O)c2ccc3ccccc3c2)CC1`, the Ki is 8.5 µM on Serine protease 1 and 0.35 µM on Prothrombin.

On to `N=C(N)c1cccc(CC(NS(=O)(=O)c2ccc3ccccc3c2)C(=O)N2CCN(CCO)CC2)c1` (stereo not given), for which the affinity on Serine protease 1, expressed as Ki, was 1.1 µM.

In the case of `N=C(N)c1cccc(CC(NS(=O)(=O)c2ccc3ccccc3c2)C(=O)N2CCN(C(=O)Oc3ccccc3)CC2)c1` (stereo not given), the Ki stood at 43 µM on Coagulation factor X, 0.028 µM at Serine protease 1, 2.3 µM on Plasminogen [1] and 17 µM on Prothrombin.

`CC(C)c1cc(C(C)C)c(S(=O)(=O)NC(Cc2cccc(C(=N)N)c2)C(=O)N2CCN(S(C)(=O)=O)CC2)c(C(C)C)c1` (stereo not given): the Ki on Coagulation factor X was 7.4 µM; at Plasminogen [1] it was 6.4 µM.

`CN1CCN(C(=O)[C@H](Cc2cccc(C(=N)N)c2)NS(=O)(=O)c2ccc3ccccc3c2)CC1`: the Ki at Serine protease 1 was 73 µM; at Prothrombin it was 7.1 µM.

Regarding `N=C(N)c1cccc(CC(NS(=O)(=O)c2ccc3ccccc3c2)C(=O)N2CCN(C=O)CC2)c1` (stereo not given), at Serine protease 1, the Ki was 0.22 µM.

On to `CN1CCN(C(=O)C(Cc2cccc(C(=N)N)c2)NS(=O)(=O)c2ccc3ccccc3c2)CC1` (stereo not given), for which the Ki is 30 µM on Coagulation factor X, 55 µM on Plasminogen [1] and 0.036 µM on Prothrombin.

Take `CCN(CC)C(=O)N1CCN(C(=O)C(Cc2cccc(C(=N)N)c2)NS(=O)(=O)c2ccc3ccccc3c2)CC1` (stereo not given): the Ki on Coagulation factor X stood at 12 µM; at Serine protease 1 it was 0.22 µM; at Plasminogen [1] it was 14 µM; at Prothrombin, 0.51 µM.

With `N=C(N)c1cccc(CC(NS(=O)(=O)c2ccc3ccccc3c2)C(=O)N2CCNCC2)c1` (stereo not given), the Ki on Coagulation factor X was determined as 21 µM; at Plasminogen [1], 10.2 µM.

`CC1CNc2c(cccc2S(=O)(=O)N[C@@H](CCCNC(=N)N)C(=O)N2CCC(C)C[C@@H]2C(=O)O)C1` (single isomer, unassigned) [ARGATROBAN]: the IC50 (in general, the concentration that inhibits the measured activity by half) in experiment [2] was 0.062 µM; in experiment [3] it was 0.42 µM; in [4], 0.66 µM.

For `Cc1c(C)c(S(=O)(=O)NC(Cc2cccc(C(=N)N)c2)C(=O)N2CCN(S(C)(=O)=O)CC2)c(C)c2c1OC(C)(C)CC2` (stereo not given), the Ki on Serine protease 1 was determined as 0.76 µM.

On to `CC(=O)N1CCN(C(=O)[C@H](Cc2cccc(C(=N)N)c2)NS(=O)(=O)c2ccc3ccccc3c2)CC1`, for which, at Serine protease 1, the affinity, expressed as Ki, was 17 µM.

Consider `CC1(C)C2CCC1(CCS(=O)(=O)NC(Cc1cccc(C(=N)N)c1)C(=O)N1CCN(S(C)(=O)=O)CC1)C(=O)C2` (stereo in doubt; 28), for which the Ki came out at 1.1 µM at Coagulation factor X, 0.22 µM at Serine protease 1, 14 µM at Plasminogen [1] and 0.012 µM on Prothrombin.

On to `N=C(N)c1cccc(CC(NS(=O)(=O)c2ccc3ccccc3c2)C(=O)N2CCN(C(=O)c3ccccc3)CC2)c1` (stereo not given), for which the inhibition constant Ki came to 16 µM on Coagulation factor X, 0.14 µM on Serine protease 1, 7.2 µM on Plasminogen [1] and 7.6 µM on Prothrombin.

For `Cc1ccc(S(=O)(=O)N2CCN(C(=O)C(Cc3cccc(C(=N)N)c3)NS(=O)(=O)c3ccc4ccccc4c3)CC2)cc1` (stereo not given), the affinity at Serine protease 1 corresponds to a Ki of 0.22 µM.

Take `CCCCS(=O)(=O)N1CCN(C(=O)C(Cc2cccc(C(=N)N)c2)NS(=O)(=O)c2ccc3ccccc3c2)CC1` (stereo not given): the Ki on Coagulation factor X was determined as 18 µM; at Serine protease 1 it was 0.18 µM; at Plasminogen [1], 11 µM; on Prothrombin, 0.35 µM.

On Serine protease 1, `CCS(=O)(=O)N1CCN(C(=O)C(Cc2cccc(C(=N)N)c2)NS(=O)(=O)c2ccc3ccccc3c2)CC1` (stereo not given) had a Ki of 0.19 µM.

Consider `CC1(C)C2CCC1(CCS(=O)(=O)N[C@H](Cc1cccc(C(=N)N)c1)C(=O)N1CCN(S(C)(=O)=O)CC1)C(=O)C2` (stereo not given in full), for which the Ki was found to be 14 µM on Plasminogen [5]; 1.1 µM at Coagulation factor X; 0.22 µM on Serine protease 1; 55 µM at Coagulation factor XII; 22 µM on Plasma kallikrein; 33 µM in experiment [6]. For the same molecule, the Ki on Prothrombin worked out at 0.012 µM; in [7], 49 µM; in experiment [8] it was 20 µM.

`CC1CCN(C(=O)C(Cc2cccc(C(=N)N)c2)NS(=O)(=O)c2ccc3ccccc3c2)CC1` (stereo not given): the Ki turned out to be 41 µM on Coagulation factor X and 5.2 µM at Plasminogen [1].

As to `N=C(N)c1cccc(CC(NS(=O)(=O)c2ccc3ccccc3c2)C(=O)N2CCN(c3ccccc3)CC2)c1` (stereo not given), the Ki came out at 27 µM on Coagulation factor X and 2.6 µM at Plasminogen [1].

In the case of `N=C(N)c1cccc(CC(NS(=O)(=O)c2ccc3ccccc3c2)C(=O)N2CCN(C(=O)C3CCCCC3)CC2)c1` (stereo not given), on Serine protease 1, the Ki stood at 0.072 µM.

At Serine protease 1, `N=C(N)c1cccc(CC(NS(=O)(=O)c2ccc3ccccc3c2)C(=O)N2CCN(S(=O)(=O)c3ccccc3)CC2)c1` (stereo not given) showed a Ki of 0.33 µM.

The molecule `CS(=O)(=O)N1CCN(C(=O)C(Cc2cccc(C(=N)N)c2)NS(=O)(=O)c2ccc3ccccc3c2)CC1` (stereo not given) showed a Ki on Serine protease 1 of 0.19 µM.

`COC(=O)N1CCN(C(=O)C(Cc2cccc(C(=N)N)c2)NS(=O)(=O)c2ccc3ccccc3c2)CC1` (stereo not given): the Ki at Coagulation factor X came out at 77 µM; on Plasminogen [1] it was 2.8 µM.

For the molecule `CCOC(=O)N1CCN(C(=O)C(Cc2cccc(C(=N)N)c2)NS(=O)(=O)c2ccc3ccccc3c2)CC1` (stereo not given), the Ki was determined as 54 µM at Coagulation factor X, 0.022 µM at Serine protease 1, 2.5 µM on Plasminogen [1] and 0.67 µM on Prothrombin.

At Serine protease 1, `CC(=O)N1CCN(C(=O)C(Cc2cccc(C(=N)N)c2)NS(=O)(=O)c2ccc3ccccc3c2)CC1` (stereo not given) came in with a Ki of 0.14 µM.

Consider `Cc1c(C)c(S(=O)(=O)N[C@H](Cc2cccc(C(=N)N)c2)C(=O)N2CCN(S(C)(=O)=O)CC2)c(C)c2c1OC(C)(C)CC2`, for which the Ki was 41 µM on Coagulation factor X; 0.32 µM at Serine protease 1; over 1000 µM on Coagulation factor XII; 97 µM at Plasma kallikrein; 180 µM in experiment [6]; 0.0053 µM on Prothrombin. In addition, the Ki came to 58 µM in [7] and 470 µM in experiment [8].

For the molecule `CS(=O)(=O)N1CCN(C(=O)C(Cc2cccc(C(=N)N)c2)NS(=O)(=O)c2ccccc2)CC1` (stereo not given), the Ki at Coagulation factor X turned out to be 29 µM; on Serine protease 1, 1 µM; at Plasminogen [1], 29 µM; at Prothrombin, 0.22 µM.

On to `N=C(N)c1cccc(CC(NS(=O)(=O)c2ccc3ccccc3c2)C(=O)N2CCCCC2)c1` (stereo not given), for which the Ki on Coagulation factor X stood at 38 µM; on Plasminogen [1], 7 µM.

`CCCCCC(=O)N1CCN(C(=O)C(Cc2cccc(C(=N)N)c2)NS(=O)(=O)c2ccc3ccccc3c2)CC1` (stereo not given): the Ki at Serine protease 1 turned out to be 0.064 µM.

As to `CC1(C)C2CCC1(CCS(=O)(=O)NC(Cc1cccc(C(=N)N)c1)C(=O)N1CCN(S(C)(=O)=O)CC1)C(=O)C2` (stereo in doubt; 30), the Ki on Coagulation factor X worked out at 6.7 µM; at Serine protease 1 it was 0.44 µM; at Plasminogen [1], 29 µM; at Prothrombin, 0.031 µM.
